According to article PMC5407577, “Functional and genetic evidence that nucleoside transport is highly conserved in Leishmania species: Implications for pyrimidine-based chemotherapy” (International Journal for Parasitology: Drugs and Drug …, 2017):
Where two headings read alike, the source gives them in different places.

Assays:
[1] = test system: L. mexicana promastigotes; experiment: metabolomic analysis of treated L. mexicana promastigotes; assay type: cell-based, Leishmania mexicana; conditions: 100 μM, 8 h
Experimental: (§1) Metabolomics analysis of the Leishmania promastigotes was undertaken in triplicate, exactly as described ([Ali et al., 2013a]). Briefly, cells were grown to log phase stage, resuspended at 2 × 10^6 cells/ml in 50 ml HOMEM/FBS and incubated 8 h with 100 μM of test compound (standard conditions) before transfer to a 50-ml centrifuge tube for instantaneous cooling (dry ice/ethanol bath, 4 °C) and centrifugation (2500 rpm, 10 min, 4 °C). The pellet was lysed with 200 μl of chloroform/methanol/water (1:3:1 v/v/v) containing mass spectrometry standards, and vigorous mixing (1 h, 4 °C); cell debris was removed by centrifugation and the metabolite extracts were stored in HPLC vials at −80 °C. Control samples were prepared in parallel and included untreated cells, unused growth medium, test compound solution and extraction solvent blanks. The analysis used a hydrophilic interaction liquid chromatography (HILIC-LC) fitted with a zwitterionic ZIC-pHILIC column (Merck Sequant), coupled to high resolution mass spectrometry (MS) using a Thermo Q-Exactive, and metabolomic data outputs were analyzed using the IDEOM application (http://mzmatch.sourceforge.net/ideom.php) with default parameters ([Creek et al., 2012]) exactly as described ([Ali et al., 2013a]). The lower limit of detection was set to 500 intensity units for all reported metabolites, in order to prevent spurious identification of low level signals.
(§2) The mechanism of action of the fluorinated pyrimidines was investigated using a metabolomics approach, where promastigotes of L. mexicana and L. major were incubated for 8 h with 100 μM of either 5-FU, 5F-2′dUrd or 5F-Urd prior to metabolite extraction and mass spectrometric analysis as described ([Ali et al., 2013a], [Alkhaldi et al., 2015]). These conditions were chosen to allow for significant metabolite accumulation while not affecting cell viability or growth rate, which could broadly affect metabolite levels.

[2] = test system: L. mexicana promastigotes WT; experiment: Alamar blue drug sensitivity assay, L. mexicana WT; assay type: cell-based, Leishmania mexicana; conditions: Leishmania mexicana, 72 h, WT promastigotes, 72 h + 48 h with dye; n ≥ 4; read-out: EC50
Experimental: (§3) Sensitivity assays of Leishmania strains to various drugs using the viability dye resazurin (Alamar Blue) (Sigma-Aldrich) were performed using a protocol adapted from [Räz et al. (1997)], as described ([Al-Salabi et al., 2003], [Gould et al., 2008]). Pentamidine and diminazene were used as non-nucleoside controls and were obtained from Sigma-Aldrich, as were many purines, pyrimidines, and analogs, with the exceptions of 2-thiouridine and 4-thiouridine (TriLink BioTechnologies, San Diego, CA); 5′-deoxyuridine, and 2′-3′-dideoxyuridine (Carbosynth, Compton, UK); 5-fluoro-2′-deoxyuridine (Fluka); and 2-thiouracil (ICN Biomedicals, Cambridge, UK). A preliminary promastigote culture was diluted to a density of 2 × 10^6 cells/ml, of which 100 μl was added to wells of 96-well plates pre-loaded with 100 μl of doubling dilutions of test compounds, resulting in a final density of 1 × 10^6 cells/ml; the dilutions were over 2 rows of the plate (23 concentrations), with the last well containing only medium and serving as the no-drug control. The plates were incubated at 25 °C for 72 h before adding the Alamar Blue dye (20 μl of 12.5 mg resazurin sodium salt (Sigma) in 100 ml phosphate buffered saline (PBS; pH 7.4)). Since Leishmania parasites metabolize the Alamar Blue dye slower than trypanosomes ([Gould et al., 2008]), the cells were incubated with the dye for a further period of 48 h before measuring the fluorescence, using a FLUOstar Optima fluorimeter (BMG Labtech) at wavelengths of 544 nm for excitation and 620 nm for emission. […] Each experiment was performed independently at least 4 times; statistical significance was determined using Student's unpaired t-test.

Lmex5F2′dURes [3] = experiment: microbe, parasite or virus in culture; assay type: cell-based, Leishmania mexicana
Experimental: as §3

Lmex5FURes [4] = experiment: microbe, parasite or virus in culture; assay type: cell-based, Leishmania mexicana
Experimental: as §3

L. major promastigotes [5] = experiment: metabolomic analysis of treated L. major promastigotes; assay type: cell-based, Leishmania major; conditions: 100 μM, 8 h
Experimental: as §1, §2

LmexNT1 [6] = assay type: cell-based, Leishmania mexicana; conditions: inhibition of 0.25 μM [3H]-uridine uptake in the presence of 1 mM uracil
Procedure, shortened: (§4)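 Mid-to-late log-phase parasites were washed and held at 10^8 cells ml^−1 in HEPES/bicarbonate buffer with glucose, pH 7.3, then incubated at ambient temperature with radiolabelled permeant, with or without unlabelled substrate or inhibitors. Uptake was stopped with ice-cold excess unlabelled permeant and oil centrifugation, then counted by scintillation; saturation, inhibition and time-course data fitted by regression, in triplicate.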

Lmex5FURes [7] = assay type: cell-based, Leishmania mexicana; conditions: 0.5 μM radiolabel
Procedure, shortened: as §4

LmexUU1 = assay type: cell-based, Leishmania mexicana; conditions: inhibition of [3H]-uracil uptake, 4 min
Procedure, shortened: as §4

[8] = test system: L. major promastigotes WT; experiment: Alamar blue drug sensitivity assay, L. major WT; assay type: cell-based, Leishmania major; conditions: Leishmania major, 72 h, WT promastigotes, 72 h + 48 h with dye; n ≥ 4; read-out: EC50
Experimental: as §3

Lmaj5FURes = experiment: microbe, parasite or virus in culture; assay type: cell-based, Leishmania major
Experimental: as §3

Lmaj5F2′dURes = experiment: microbe, parasite or virus in culture; assay type: cell-based, Leishmania major
Experimental: as §3

LmajNT2 = experiment: [3H]-inosine transport by T. brucei B48 cells expressing LmajNT2; assay type: cell-based, Leishmania major; conditions: 250 μM adenosine
Experimental: Plasmid construction and transfection was performed according to [Munday et al. (2013)]. The nucleoside transporter genes were isolated from L. mexicana and L. major. […] The primers used in this study (Table S2) were designed to flank the gene of interest, one complementary to the sequence upstream of the 5′ end and the other complementary to the sequence downstream of the 3′ end. All of the nucleoside transporters genes were PCR-amplified from genomic DNA of each strain using the high-fidelity proof-reading polymerase Phusion (New England Biolabs) and cloned into the pGEMTeasy (Promega) vector prior to Sanger sequencing (Source BioScience, Glasgow, UK). […] After confirming the identity of each gene, the nucleoside transporter genes (LmajNT1A, LmajNT1B, LmajNT2, LmexNT1A, LmexNT1B, and LmexNT2) were ligated into the expression vector pHD1336 ([Biebinger et al., 1997]) and then were linearized with NotI digestion. All genes were verified by Sanger sequencing, prior to transfection into T. b. brucei clone B48. B48 parasites (1 × 10^7 cells) were washed into Human T Cell buffer for transfection using the desired cassette with an Amaxa Nucleofector using program X-001. Cells were transferred into pre-warmed HMI-9 medium and allowed to recover for 8–16 h at 37 °C and 5% CO2. Following recovery, transfectants were grown and cloned in selective medium containing 5 μg ml^−1 blasticidin S using limiting dilution.
(§5) Using the standard uptake technique as described for T. brucei and Leishmania species ([Wallace et al., 2002], [Al-Salabi and De Koning, 2005], [Gudin et al., 2006]), the dose- or time-dependent uptake of radiolabeled permeants was investigated.
Briefly, cells in the mid-to-late logarithmic stage of growth were harvested by centrifugation for 10 min at 1500×g. […] Radioactivity was determined by liquid scintillation counting in a Beckman LS6000 TA scintillation counter. […]

LmajUUT1 = experiment: [3H]-uridine uptake by L. major promastigotes, high-affinity uracil-sensitive component; assay type: cell-based, Leishmania major; conditions: inhibition of 0.25 μM [3H]-uridine uptake
Experimental: as §5
(§6) Briefly, cells in the mid-to-late logarithmic stage of growth were harvested by centrifugation for 10 min at 1500×g. The cells were washed twice with transport assay buffer (AB: 33 mM HEPES, 98 mM NaCl, 4.6 mM KCl, 0.55 mM CaCl2, 0.07 mM MgSO4, 5.8 mM NaH2PO4, 0.3 mM MgCl2, 23 mM NaHCO3, 14 mM glucose, pH 7.3), resuspended at a density of 10^8 cells ml^−1 in AB, and left for 20–30 min at room temperature to recover from centrifugation stress. One hundred microliters of cell suspension was incubated at ambient temperature for a predetermined time with 100 μl radiolabeled test compound, in the presence or absence of unlabeled substrate or other competitive inhibitors. The incubation was terminated by the addition of ice-cold stop solution (AB containing saturating levels, usually 10 mM, of unlabeled permeant) and centrifugation through oil for 1 min at 13,000 × g. […] Radioactivity was determined by liquid scintillation counting in a Beckman LS6000 TA scintillation counter. Saturation data, inhibition data, and time courses were plotted to equations for linear or non-linear regression (hyperbolic or sigmoid curves), as appropriate. All experiments were performed in triplicate and on at least three independent occasions.

LmexNT1 [9] = experiment: [3H]-adenosine uptake by L. mexicana promastigotes; assay type: cell-based, Leishmania mexicana
L. major promastigotes [10] = experiment: total [3H]-uridine uptake by L. major promastigotes; assay type: cell-based, Leishmania major; conditions: complete inhibition of [3H]-uridine transport (both components)
Experimental: as §5, §6

LdNT1.1 = test system: LdNT1.1; design: method as in Vasudevan et al., 1998; Landfear, 2001; conditions: ref Vasudevan et al., 1998; Landfear, 2001; cited from earlier work
LdNT1.2 = test system: LdNT1.2; design: method as in Vasudevan et al., 1998; Landfear, 2001; conditions: ref Vasudevan et al., 1998; Landfear, 2001; cited from earlier work
LmajNT1 [11] = experiment: [3H]-thymidine uptake by L. major promastigotes; assay type: cell-based, Leishmania major; conditions: inhibition of 0.25 μM [3H]-thymidine uptake (total LmajNT1.1 + LmajNT1.2), 5 min
LmexNT1 [12] = assay type: cell-based, Leishmania mexicana; conditions: inhibition of 1 μM [3H]-thymidine uptake, 20 s
Lmex5F2′dURes [13] = assay type: cell-based, Leishmania mexicana; conditions: 0.5 μM [3H]-uridine; 0.1 μM [3H]-adenosine; 0.25 μM [3H]-uracil
Procedure, shortened: as §4

[14] = test system: L. mexicana promastigotes; assay type: cell-based, Leishmania mexicana; conditions: maximal inhibition; uracil up to 2.5 mM (Fig. 3B)
Procedure, shortened: as §4

LmajNT1 [15] = experiment: [3H]-uridine uptake by L. major promastigotes, low-affinity component; assay type: cell-based, Leishmania major; conditions: inhibition of 0.25 μM [3H]-uridine uptake
Experimental: as §5, §6

T. b. brucei strain B48 = experiment: [3H]-inosine uptake in non-transfected T. brucei B48; assay type: cell-based, Trypanosoma brucei brucei; conditions: 250 μM adenosine or 1 mM unlabeled inosine (Fig. 7B)
Experimental: as §5, §6

[16] = n = 3, SEM, untreated: not detected (<500)

## O=c1[nH]cc(F)c(=O)[nH]1 [5-FU, 5-Fluorouracil]
[1]; [16]
  dCMP peak intensity: 5636 ± 3288 arbitrary units
[1]; untreated: 304 ± 155
  dUrd peak intensity: 4166 ± 1560 arbitrary units
[1]; untreated: 1458
  dADP peak intensity: 8948 ± 461^∗∗ arbitrary units
[1]; untreated: 2585 ± 811
  dAdo peak intensity: 6476 ± 2403 arbitrary units
[1]; untreated: 10660 ± 2897
  dAMP peak intensity: 20366 ± 5358 arbitrary units
[1]; untreated: not detected
  dCDP peak intensity: 4803 ± 433^∗∗ arbitrary units
  dCTP peak intensity: 2913 ± 1346 arbitrary units
[2]
  EC50: 9.3 ± 0.6 µM
Lmex5F2′dURes [3]; Leishmania mexicana
  EC50: 1770 ± 301 µM
Lmex5F2′dURes [3]; Lmex5F2′dURes vs L. mexicana WT
  RF (Resistance Factor = IC50 (resistant clone)/IC50 (WT)): 190
Lmex5FURes [4]; Leishmania mexicana
  EC50: 1370 ± 123 µM
Lmex5FURes [4]; Lmex5FURes vs L. mexicana WT
  RF (Resistance Factor = IC50 (resistant clone)/IC50 (WT)): 147
L. major promastigotes [5]; [16]
  dCMP peak intensity: 5130 arbitrary units
L. major promastigotes [5]; untreated: 712 ± 105
  dUrd peak intensity: 5177 ± 1445 arbitrary units
L. major promastigotes [5]; untreated: 995 ± 109
  dCTP peak intensity: 4541 ± 565 arbitrary units
L. major promastigotes [5]; untreated: 2992 ± 173
  dAdo peak intensity: 6996 ± 2423 arbitrary units
L. major promastigotes [5]; untreated: 6192 ± 910
  dAMP peak intensity: 19379 ± 3774 arbitrary units
L. major promastigotes [5]; untreated: not detected
  dADP peak intensity: not detected
  dCDP peak intensity: 6197 ± 1588 arbitrary units
LmexNT1 [6]
  Ki: > 5000 µM
Lmex5FURes [7]
  uptake of radiolabel, lower than in WT control cells: 94.5%
LmexUU1
  Ki: 56.3 ± 6.4 µM
[8]
  EC50: 8.5 ± 0.6 µM
Lmaj5FURes; Leishmania major
  EC50: 150 ± 5 µM
Lmaj5FURes; Lmaj5FURes vs L. major WT
  RF (Resistance Factor = IC50 (resistant clone)/IC50 (WT)): 17
Lmaj5F2′dURes; Leishmania major
  EC50: 12 ± 1 µM
Lmaj5F2′dURes; Lmaj5F2′dURes vs L. major WT
  RF (Resistance Factor = IC50 (resistant clone)/IC50 (WT)): 1.3

## Nc1ncnc2c1ncn2[C@@H]1O[C@H](CO)[C@@H](O)[C@H]1O [adenosine]
LmajNT2
  inhibition of 50 nM [3H]-inosine transport: 57%
LmajUUT1
  Ki: 1.93 ± 0.49 µM
LmexNT1 [9]; 0.1 μM [3H]-adenosine, linear over at least 30 s
  rate of transport: 0.21 ± 0.01 pmol(10^7 cells)^−1s^−1
LmexNT1 [9]; [3H]-adenosine
  Km: 0.81 ± 0.16 µM
  Vmax: 1.11 ± 0.19 pmol(10^7 cells)^−1s^−1
L. major promastigotes [10]
  Ki: 1.93 ± 0.49 µM
LdNT1.1
  Km: ~0.2 µM
LdNT1.2
  Km: ~5 µM
LmajNT1 [11]
  Ki: 1.77 ± 0.21 µM
LmexNT1 [12]
  Ki: 0.25 ± 0.04 µM
LmexNT1 [6]
  Ki: 0.39 ± 0.09 µM
Lmex5F2′dURes [13]
  uptake of radiolabel, reduced compared to WT control cells: 89%
[14]
  inhibition of 0.25 μM [3H]-uridine transport: ~100%
LmajNT1 [15]
  Ki: 1.93 ± 0.49 µM
T. b. brucei strain B48
  inhibition of 50 nM [3H]-inosine transport: fully inhibited
